From ChEMBL document CHEMBL5104091, “Pyridazine as a privileged structure: An updated review on anticancer activity of pyridazine containing bioactive molecules” (Eur J Med Chem, 2021) come the findings set out here.

One assay concerns HCT-116. The assay is described as follows: Cytotoxicity against human HCT-116 cells assessed as cell growth inhibition by colorimetric method. The format is functional, cell-based.
The subject of a further assay is MDA-MB-231. The assay is described as follows: Antiproliferative activity against human MDA-MB-231 cells assessed as cell growth inhibition measured after 48 hrs by WST-1 assay. The format is functional, cell-based. As to conditions: MDA-MB-231, 48 h.
Assay [1] deals with MCF7. The assay is described as follows: Antiproliferative activity against human MCF7 cells assessed as cell growth inhibition. The format is functional, cell-based.
Assay [2] is described as follows: Inhibition of tyrosine kinase (unknown origin). On the set-up: species or system Homo sapiens.
The subject of another assay is MCF-12A. The assay is described as follows: Antiproliferative activity against human MCF-12A cells assessed as cell growth inhibition. It is filed as functional, cell-based.
The test system of a further assay is P815. The assay is described as follows: Cytotoxicity against mouse P815 cells assessed as cell growth inhibition measured after 48 hrs by MTT assay. The conditions noted are these: P815, 48 h. The format is functional, cell-based. For orientation: Tetrazolium dyes change colour on reduction, which living cells bring about.
Assay [3] deals with MCF7. The assay is described as follows: Cytotoxicity against human MCF7 cells assessed as cell growth inhibition measured after 48 hrs by MTT assay. It is filed as functional, cell-based. The conditions noted are these: MCF7, 48 h.
Assay [4] has as its target T1, Poly [ADP-ribose] polymerase 1 (Homo sapiens, UniProt P09874). The assay is described as follows: Displacement of [125I]KX1 from PARP1 in human OVCAR-8 cells incubated for 1 hr by wizard gamma counter analysis. The format is cell-based. In general terms: Loss of bound radioactivity is the signal in a displacement assay; it reports binding, not function.
The test system of a further assay is ECa-109 cell line. The assay is described as follows: Antiproliferative activity against human EC109 cells assessed as inhibition of cell growth. The format is functional, cell-based. The conditions noted are these: read-out: IC50.
The target in assay [5] is T1, Poly [ADP-ribose] polymerase 1. The assay is described as follows: Inhibition of PARP1 (unknown origin) by colorimetric assay.
Assay [6] concerns MCF7. The assay is described as follows: Cytotoxicity against human MCF7 cells assessed as cell growth inhibition by colorimetric method. The format is functional, cell-based.
In assay [7] the test system is HepG2. The assay is described as follows: Cytotoxicity against human HepG2 cells assessed as cell growth inhibition by colorimetric method. The format is functional, cell-based.
Assay [8] has as its system A549. The assay is described as follows: Antiproliferative activity against human A549 cells assessed as cell growth inhibition measured after 48 hrs by MTT assay. The format is functional, cell-based. The conditions noted are these: A549, 48 h.
Assay [9] deals with HepG2. The assay is described as follows: Antiproliferative activity against human HepG2 cells assessed as cell growth inhibition incubated for 48 hrs by MTT assay. It is filed as functional, cell-based. The conditions noted are these: HepG2, 48 h.
Assay [10] has as its system MCF7. The assay is described as follows: Antiproliferative activity against human MCF7 cells assessed as cell growth inhibition incubated for 48 hrs by MTT assay. It is filed as functional, cell-based. As to conditions: MCF7, 48 h.
The subject of assay [11] is A549. The assay is described as follows: Cytotoxicity against human A549 cells assessed as cell growth inhibition measured after 45 hrs by MTT assay. It is filed as functional, cell-based. As to conditions: A549, 45 h.
Assay [12] relates to HepG2. The assay is described as follows: Cytotoxicity against human HepG2 cells assessed as cell growth inhibition measured after 45 hrs by MTT assay. It is filed as functional, cell-based. As to conditions: HepG2, 45 h.
In another assay the test system is A498. The assay is described as follows: Cytotoxicity against human A498 cells assessed as cell growth inhibition measured after 45 hrs by MTT assay. It is filed as functional, cell-based. As to conditions: A498, 45 h.
The next assay has as its system Ca-Ski. The assay is described as follows: Cytotoxicity against human Ca-Ski cells assessed as cell growth inhibition measured after 45 hrs by MTT assay. It is filed as functional, cell-based.
The subject of the next assay is SiHa. The assay is described as follows: Cytotoxicity against human SiHa cells assessed as cell growth inhibition measured after 45 hrs by MTT assay. The format is functional, cell-based.
The test system of another assay is KB. The assay is described as follows: Cytotoxicity against human KB cells assessed as cell growth inhibition. The format is functional, cell-based.
The next assay concerns SK-MEL. The assay is described as follows: Cytotoxicity against human SK-MEL cells assessed as cell growth inhibition. The format is functional, cell-based.
In assay [13] the test system is HepG2. The assay is described as follows: Cytotoxicity against human HepG2 cells assessed as cell growth inhibition after 48 hrs by SRB assay. As to conditions: HepG2, 48 h. It is filed as functional, cell-based. On the technique in general: Sulforhodamine B stains cellular protein and so reports cell mass.
Assay [14] concerns the target Hepatocyte growth factor receptor (Homo sapiens, UniProt P08581). The assay is described as follows: Inhibition of human recombinant c-MET in presence of ATP by HTRF assay.
For assay [15], the system named is HepG2. The assay is described as follows: Antiproliferative activity against human HepG2 cells assessed as cell growth inhibition incubated for 24 hrs by MTT assay. As to conditions: HepG2, 24 h. It is filed as functional, cell-based.
The test system of assay [16] is MCF7. The assay is described as follows: Antiproliferative activity against human MCF7 cells assessed as cell growth inhibition incubated for 24 hrs by MTT assay. The format is functional, cell-based. The conditions noted are these: MCF7, 24 h.
Assay [17] concerns MCF7. The assay is described as follows: Antiproliferative activity against human MCF7 assessed as cell growth inhibition measured after 72 hrs by CCK-8 assay. As to conditions: MCF7, 72 h. The format is functional, cell-based.
For assay [18], the system named is Hep 3B2. The assay is described as follows: Antiproliferative activity against human Hep3B assessed as cell growth inhibition measured after 72 hrs by CCK-8 assay. The format is functional, cell-based.
Assay [19] has as its system Hep 3B2. The assay is described as follows: Induction of apoptosis in human Hep3B cells assessed as early apoptotic cells incubated for 24 hrs by annexin-V/FITC and propidium iodide staining based flow cytometry analysis. The format is functional.
The test system of assay [20] is MCF7. The assay is described as follows: Induction of apoptosis in human MCF7 cells assessed as early apoptotic cells incubated for 24 hrs by annexin-V/FITC and propidium iodide staining based flow cytometry analysis. It is filed as functional.
Another assay concerns MDA-MB-468. The assay is described as follows: Cytotoxicity against human MDA-MB-468 cells assessed as cell growth reduction measured after 48 hrs by MTT assay. It is filed as functional, cell-based. As to conditions: MDA-MB-468, 48 h.

The structures appear in SMILES notation. Converted amounts (≈) assume the structure as drawn.

T1 sequence (P09874 whole entry): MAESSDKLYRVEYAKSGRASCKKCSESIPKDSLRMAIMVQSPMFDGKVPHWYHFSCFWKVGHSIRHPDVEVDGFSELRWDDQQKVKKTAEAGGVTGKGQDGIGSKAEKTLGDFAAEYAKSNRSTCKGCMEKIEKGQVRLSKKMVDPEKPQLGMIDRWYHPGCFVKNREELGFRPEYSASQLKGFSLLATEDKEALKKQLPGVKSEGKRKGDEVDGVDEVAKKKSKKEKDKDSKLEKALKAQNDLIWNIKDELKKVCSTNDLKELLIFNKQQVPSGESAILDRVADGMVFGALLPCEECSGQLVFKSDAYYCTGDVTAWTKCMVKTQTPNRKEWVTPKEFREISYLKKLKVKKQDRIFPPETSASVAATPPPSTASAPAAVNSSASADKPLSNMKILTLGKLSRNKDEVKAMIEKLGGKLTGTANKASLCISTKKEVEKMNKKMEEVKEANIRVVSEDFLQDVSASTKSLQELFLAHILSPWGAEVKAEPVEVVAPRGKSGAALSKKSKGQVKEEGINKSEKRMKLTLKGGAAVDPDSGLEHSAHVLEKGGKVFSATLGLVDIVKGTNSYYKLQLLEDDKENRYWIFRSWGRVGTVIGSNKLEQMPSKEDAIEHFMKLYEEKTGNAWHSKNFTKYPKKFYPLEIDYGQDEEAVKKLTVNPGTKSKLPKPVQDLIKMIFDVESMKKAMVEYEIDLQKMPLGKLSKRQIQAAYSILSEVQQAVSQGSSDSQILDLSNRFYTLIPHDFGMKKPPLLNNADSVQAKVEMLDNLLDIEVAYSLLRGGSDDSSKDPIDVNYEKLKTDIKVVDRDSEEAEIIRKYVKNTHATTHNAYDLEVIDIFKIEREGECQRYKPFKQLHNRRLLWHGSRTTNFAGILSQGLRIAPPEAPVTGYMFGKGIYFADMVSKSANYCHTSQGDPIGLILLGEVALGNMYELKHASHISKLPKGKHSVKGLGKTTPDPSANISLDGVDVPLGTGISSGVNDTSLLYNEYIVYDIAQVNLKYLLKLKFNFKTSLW
Chain of Hepatocyte growth factor receptor (P08581 whole entry): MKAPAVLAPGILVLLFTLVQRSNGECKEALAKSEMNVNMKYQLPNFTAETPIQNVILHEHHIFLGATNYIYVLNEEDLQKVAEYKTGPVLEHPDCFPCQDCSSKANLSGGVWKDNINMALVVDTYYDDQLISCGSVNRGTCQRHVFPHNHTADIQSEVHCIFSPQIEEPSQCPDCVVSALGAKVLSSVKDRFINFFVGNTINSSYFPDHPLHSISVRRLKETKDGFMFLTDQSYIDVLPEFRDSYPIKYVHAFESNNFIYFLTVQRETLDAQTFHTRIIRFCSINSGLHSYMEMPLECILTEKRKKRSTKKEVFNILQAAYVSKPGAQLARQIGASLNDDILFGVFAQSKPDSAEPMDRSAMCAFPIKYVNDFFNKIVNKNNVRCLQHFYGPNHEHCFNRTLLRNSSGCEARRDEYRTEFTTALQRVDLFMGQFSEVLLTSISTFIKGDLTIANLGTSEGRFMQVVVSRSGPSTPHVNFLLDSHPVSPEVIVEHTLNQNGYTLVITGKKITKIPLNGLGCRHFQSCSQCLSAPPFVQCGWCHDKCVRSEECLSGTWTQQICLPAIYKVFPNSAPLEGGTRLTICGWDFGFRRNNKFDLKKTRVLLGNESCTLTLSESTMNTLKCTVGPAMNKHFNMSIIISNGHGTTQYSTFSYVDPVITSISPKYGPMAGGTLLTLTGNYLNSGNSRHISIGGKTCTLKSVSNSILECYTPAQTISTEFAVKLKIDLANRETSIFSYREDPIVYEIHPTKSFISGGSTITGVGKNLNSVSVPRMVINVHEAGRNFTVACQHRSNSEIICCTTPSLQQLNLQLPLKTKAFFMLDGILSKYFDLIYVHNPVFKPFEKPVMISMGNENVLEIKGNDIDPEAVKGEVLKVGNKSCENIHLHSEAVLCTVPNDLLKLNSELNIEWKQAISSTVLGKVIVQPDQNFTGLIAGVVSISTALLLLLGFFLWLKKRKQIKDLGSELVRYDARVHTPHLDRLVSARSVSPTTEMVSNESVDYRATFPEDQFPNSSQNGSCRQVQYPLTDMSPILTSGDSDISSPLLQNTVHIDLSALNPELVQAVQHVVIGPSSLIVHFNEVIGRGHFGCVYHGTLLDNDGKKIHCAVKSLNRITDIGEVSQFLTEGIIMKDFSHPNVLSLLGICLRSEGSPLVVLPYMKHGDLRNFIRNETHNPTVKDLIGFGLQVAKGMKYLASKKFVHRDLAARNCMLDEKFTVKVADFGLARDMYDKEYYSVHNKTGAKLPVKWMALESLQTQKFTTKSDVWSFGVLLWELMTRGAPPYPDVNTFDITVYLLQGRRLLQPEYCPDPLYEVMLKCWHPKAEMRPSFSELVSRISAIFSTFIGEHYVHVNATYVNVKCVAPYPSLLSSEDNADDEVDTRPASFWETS

Regarding `Cc1ccc(-c2cc(-c3c(-c4ccccc4)[nH]c4ccccc34)c(Nc3ccc(/N=N/c4c(C)nc(N)nc4C)cc3)nn2)cc1C`, the IC50 (as a rule, the concentration at which inhibition is half-maximal) in the assay with HCT-116 was determined as 2.1 mg/L (≈ 3.41 µM). `O=C1Nc2ccccc2/C1=N/Nc1nnc(-c2ccc(Cl)cc2)c2ccccc12`: the IC50 in the assay with MDA-MB-231 turned out to be 12 µM. On to `Cc1ccc2nnc(C(=O)NNC(N)=S)c(N)c2c1`, for which the IC50 with MCF7 [1] is 0.11 µM; in [2] it was 0.34 µM; in the assay with MCF-12A, 64.2 µM. Turning to `CCc1ccc2oc(Cc3cc(=O)[nH]nc3C)cc2c1`, the IC50 with P815 was found to be 35 µM; with MCF7 [3], 14.5 µM. `COC1CCN(C(=O)c2cc(Cc3n[nH]c(=O)c4ccccc34)ccc2F)CC1` [AZD2461]: the IC50 in assay [4] came to 0.0028 µM. Regarding `COc1ccc(NC(=O)CSc2nnc(-c3ccccc3)c3ccccc23)cc1`, the IC50 in the assay on ECa-109 cell line amounted to 8.13 µM.

`O=C(c1ccc(Cc2n[nH]c(=O)c3cccnc23)cc1)N1CCCC1`: the IC50 in assay [5] stood at 0.0367 µM. For `CC(=O)C(=NNc1ccc(Nc2nnc(-c3ccc(C)c(C)c3)cc2-c2c(-c3ccccc3)[nH]c3ccccc23)cc1)C(C)=O`, in the assay with MCF7 [6], the IC50 is 2.2 mg/L (≈ 3.71 µM).

Regarding `O=C1Nc2ccccc2/C1=N/Nc1nnc(-c2ccccc2)c2ccccc12`, the IC50 in the assay on MDA-MB-231 was determined as 12 µM.

In the case of `Cc1ccc2oc(Cc3cc(=O)[nH]nc3C)cc2c1`, the IC50 in the assay on P815 turned out to be 35 µM; with MCF7 [3] it was 14.5 µM.

Turning to `COc1ccc2oc(Cc3cc(=O)[nH]nc3C)cc2c1`, the IC50 came to 35 µM in the assay on P815 and 14.5 µM with MCF7 [3].

With `CCOC(=O)/C(C#N)=N/Nc1ccc(Nc2nnc(-c3ccc(C)c(C)c3)cc2-c2c(-c3ccccc3)[nH]c3ccccc23)cc1`, the IC50 with HepG2 [7] is 3.1 mg/L (≈ 5.12 µM). Consider `CNC(=O)c1cc(Oc2ccc(NC(=O)Nc3ccc(Cl)c(C(F)(F)F)c3)cc2)ccn1` [SORAFENIB], for which the IC50 in the assay with A549 [8] turned out to be 1.25 µM. For the compound `Cc1cccc(NC(=S)NNC(=O)c2nnc3ccc(C)cc3c2N)c1`, the IC50 was 0.18 µM in the assay with MCF7 [1], 0.55 µM in assay [2] and 48.7 µM in the assay on MCF-12A. In the case of `COc1ccc(-c2cc(Cc3ccccc3O)c(=O)[nH]n2)cc1`, the IC50 in the assay with HepG2 [9] is 26.4 µM; with MCF7 [10], more than 37 µM. On to `CCCOc1ccc2oc(Cc3cc(=O)[nH]nc3C)cc2c1`, for which the IC50 in the assay with P815 worked out at 35 µM; with MCF7 [3], 14.5 µM. As for `COC1CCCN(C(=O)c2cc(Cc3n[nH]c(=O)c4ccccc34)ccc2F)CC1` (stereo not given), the IC50 in assay [4] came to 0.0047 µM. On to `O=C1Nc2ccc(Br)cc2/C1=N/Nc1nnc(-c2ccc(Cl)cc2)c2ccccc12`, for which the IC50 with MDA-MB-231 was 12 µM. As to `CC(C)c1ccc(OCC(=O)NNc2ccc(Cl)nn2)c(C(C)C)c1`, the IC50 in the assay with A549 [11] amounted to 6.6 µM; in the assay with HepG2 [12] it was 6.9 µM; in the assay with A498, 6.8 µM; in the assay on Ca-Ski, 7.5 µM; with SiHa it was 7.8 µM. In the case of `O=C1Nc2ccc(Br)cc2/C1=N/Nc1nnc(-c2ccccc2)c2ccccc12`, the IC50 with MDA-MB-231 turned out to be 12 µM. As to `O=c1c(CNc2ccccc2)cc(OS(=O)(=O)C(F)(F)F)nn1Cc1ccccc1`, the IC50 is 2.8 µM in the assay with KB and 3.3 µM in the assay on SK-MEL. As to `O=C(Cn1nc(Cc2ccccc2)c2ccccc2c1=O)NNC(=S)Nc1ccccc1`, the IC50 in the assay with HepG2 [13] worked out at 7.09 mg/L (≈ 16 µM). `COC1CN(C(=O)c2cc(Cc3n[nH]c(=O)c4ccccc34)ccc2F)C1` displayed an IC50 in assay [4] of 0.0082 µM. Take `Cn1cc(-c2ccc(=O)n(CC3CN(c4ncc(OCC5CCNCC5)cn4)CCO3)n2)cn1` (stereo not given): the IC50 in [14] is 0.019 µM.

As to `Cc1cc(-c2ccc(OCC(=O)NNc3nnc(COc4ccc(-c5ccc(Cl)c(C)c5)nn4)o3)nn2)ccc1Cl`, the values for the IC50 in the assay on HepG2 [15] and in the assay with MCF7 [16] were 8.67 µM and 9.41 µM, respectively. `C=CC[Se]c1ccc(S(=O)(=O)CCC)nn1`: the figures for the IC50 in the assay with MCF7 [17] and in the assay with Hep 3B2 [18] were 33.8 µM and 30.7 µM, respectively. The Activity was 5.46% in the assay on Hep 3B2 [19] and 9.28% in the assay with MCF7 [20]. Regarding `Cc1n[nH]c(=O)cc1Cc1cc2cc(Cl)ccc2o1`, the IC50 in the assay on MDA-MB-468 is 9.01 µM.
